This is an account of results in patent publication US20050208037A1, “Thioredoxin increases redox-cycling of anticancer agents thereby sensitizes cancer cells to apoptosis” (Board of Regents, The University of Texas System, priority 2003, published 2005).

Counter-ions that a name gives are not always drawn.

The subject of data set [1] is Trx9 cells (MCF-7 clones expressing thioredoxin). Nature of the data set: Superoxide production in cell lysate by SOD-inhibitable reduction of ferricytochrome c. The data set is classed as biochemical, human. The note with it: for inhibition of SOD-inhibitable rate of O2— generation: inhibitor 50 μM, then 10 μM doxorubicin. As to the method:
Determination of superoxide production by reduction of ferricytochrome c. Superoxide production was measured as superoxide dismutase (SOD) inhibitable reduction of ferricytochrome c (Azzi et al. 1975). Cells were sonicated in potassium phosphate buffer (0.05M, pH 7.8 plus 1 mM EDTA), centrifuged and the supernatant was used for the assay. To determine the superoxide generation in the cell lysate, the supernatant was incubated with 10 μM drug and 10 μM cytochrome c, with or without 1U SOD to determine SOD inhibitable rate. The specificity of thioredoxin mediated superoxide generation in the supernatant was detected by pre-incubation of cell lysates with anti-human thioredoxin antibody (American Diagnostica, Greenwich, Conn.) for 15 min. All reactions were performed in triplicate. The reduction of ferricytochrome c was measured both in kinetic and end point mode with path check on for 1 hr duration at a wavelength of 550 nm using a Spectramax 190 plate reader (Molecular Devices). Total protein was quantified using Bradford protein assay (Biorad) and the superoxide generation was determined per milligram of protein in the extracts.

The test system of data set [2] is p53 in Trx9 cells. Nature of the data set: Western blotting of p53 and phospho-p53 (ser-15). The data set is classed as cell-based, human. The settings on record: daunomycin treated Trx9 cells, 4 hr. The source says:
Western blotting. Equal amounts of protein were resolved on 10% SDS-polyacrylamide gel electrophoresis, and transferred to nitrocellulose membrane (Hybond-ECL, Amersham Pharmacia Biotech) immunoblotted with anti-p53 or anti-p53 phospho ser-15 (Cell Signaling Technology, Beverly, Mass.) and visualized using Lumiglo system with antirabbit conjugated HRP. For cytochrome c determination the cytosolic protein was resolved on 15% SDS-PAGE and immunoblotted using anti-cytochrome c (BD Pharmingen, San Diego, Calif.) and visualized using the ECL system (Amersham Pharmacia Biotech, Piscataway, N.J.) and anti-mouse IgG conjugated HRP (Santa Cruz Biotech, California).

Data set [3] deals with p53 in Trx9 cells. Nature of the data set: Electrophoretic mobility shift assay of p53 DNA binding. The data set is classed as cell-based, human. The note with it: daunomycin treated Trx9 cells, 4 hr. The method, then:
Nuclear Extract preparation. Nuclear extract was prepared as described previously (Das, 2001). […] The extracts were then centrifuged at 14,000 rpm for 25 min and the supernatant was saved as nuclear extract in −70° C. for further experiments. Protein was quantified using Bradford protein assay (Biorad).
Electrophoretic Mobility shift assay (EMSA). For the EMSA the p53 consensus oligonucleotide was obtained from Genosys 5′-[…]-3′ (SEQ ID NO:9) and end labeled using T4 Poly nucleotide kinase (New England Biolabs, Beverly, Mass.) and [γ-^32P] ATP (Perkin Elmer, Boston, Mass.) in 10× kinase buffer supplied with the enzyme. […] The nuclear protein was separated by electrophoresis using 4% native polyacrylamide gel and 0.25× of TBE (Tris-Borate-EDTA) as running buffer. The gels were dried and exposed to Kodax Biomax X-ray film overnight.

Data set [4] concerns Trx9 cells (MCF-7 clones expressing thioredoxin). Nature of the data set: Flow cytometry, apoptosis as sub-G1 peak (propidium iodide). The data set is classed as cell-based, human. The settings on record: daunomycin 1 μM, 16 h. As to the method:
(§1) Flow cytometry. […] The cells were washed again with PBS containing 1% FBS and resuspended in 500 μl of PBS followed by fixing in 7.5 ml of ice-cold ethanol 70% added dropwise while vortexing and stored in −20° C. overnight. After two washes with PBS containing 1% FBS and resuspended in same buffer and stained with Propidium Iodide 10 μg/ml (Sigma, St. Louis, Mo.) in the presence of RNase 250 μg/ml at 37° C. for 30 min in dark. Stained cells were analyzed using Epics Elite ESP Coulter, using argon laser at 488 nm wavelength. Flow cytometric results were analyzed and apoptosis was defined as ‘sub G1’ peak (Gutierrez, 2000) using Multicycle software.

Data set [5] has as its system vector cells (vector-only MCF-7). The description is as above. The data set is classed as cell-based, human. The note with it: daunomycin 1 μM, 16 h. The method, then:
as §1

Data set [6] relates to Trx9 cells (MCF-7 clones expressing thioredoxin). Nature of the data set: Cell proliferation assay by BrdU ELISA. The data set is classed as cell-based, human. The settings on record: daunomycin 1 μM, 16 h. As to the method: (§2) Cell proliferation assay. Cell proliferation assay by BrdU ELISA kit was purchased from Roche Molecular Biochemicals (Indianapolis, Ind.). For this assay cells were seeded to a final density of 5000 per well in 96 well plates and allowed to attach overnight, […] BrdU for 4-6 hr, and detected using Tetramethylbenzedine as substrate with Anti-BrdU POD at 370 nm and reference wavelength 492 nm in Spectramax 190 plate reader.

The subject of data set [7] is vector cells (vector-only MCF-7). In words: Cell proliferation assay by BrdU ELISA. The settings on record: daunomycin 1 μM, 16 h. The data set is classed as cell-based, human. The method, then: as §2
Data set [8] relates to Trx9 cells (MCF-7 clones expressing thioredoxin). In words: XTT cytotoxicity assay. The data set is classed as cell-based, human. The settings on record: percent control of untreated cells. As to the method:
(§3) XTT assay. Cytotoxicity was estimated using XTT based in vitro toxicology assay kit, (Sigma Chemical Co.). This assay is based on the metabolic capacity of viable cells; the mitochondrial dehydrogenases convert XTT yielding orange formazan crystal soluble in aqueous media that is estimated spectrophotmetrically at 450 nm and a reference wavelength at 690. The assay was performed 48 hr post treatment; cells were washed and XTT added in media free of serum and phenol red, incubated for 2-4 hr and analyzed in Spectramax 190 plate reader.

Data set [9] concerns vector cells (vector-only MCF-7). In words: XTT cytotoxicity assay. The data set is classed as cell-based, human. The note with it: percent control of untreated cells. The method, then: as §3
The subject of data set [10] is Trx9 cells (MCF-7 clones expressing thioredoxin). Nature of the data set: Colony formation assay (clonogenic survival). The data set is classed as cell-based, human. The settings on record: 0.1 μM daunomycin, end of 14 days. As to the method: (§4) Colony formation assay. For determination of clonogenic survival, the cells were seeded to a final density of 1×10^6 in 100 mm dishes, allowed to attach overnight, and the following day treated with the appropriate concentration of the drug for 48 hr. The cells were trypsinized, counted and seeded to final density of 25,000 viable cells in 100 mm dishes and allowed to grow for 14 days followed by washing and staining with crystal violet.

The test system of data set [11] is vector cells (vector-only MCF-7). Nature of the data set: Colony formation assay (clonogenic survival). The data set is classed as cell-based, human. The settings on record: 0.1 μM daunomycin, end of 14 days. As to the method:
as §4

Data set [12] concerns Trx9 cells (MCF-7 clones expressing thioredoxin). In words: TUNEL assay. The data set is classed as cell-based, human. The note with it: Trx9 compared to vector cells; daunomycin 1 μM, 16 h.
Data set [13] has the same test system. In words: Cytochrome c release (cytosolic extract, western blotting). The data set is classed as cell-based, human. The note with it: Trx9 compared to vector-only cells; daunomycin 1 μM, 16 h. As to the method: Preparation of cytosolic extract by sub cellular fractionation. Cytosolic preparation was done as described earlier (Yang et al., 1997). Briefly, cells were harvested by centrifugation (600×g) and washed once with ice cold PBS for 10 min at 4° C. The cell pellets were resuspended in five volumes of fractionation buffer (250 mM sucrose containing 20 mM HEPES-KOH, 10 mM KCl, 1.5 mM each of sodium-EDTA and sodium- EGTA, 1 mM MgCl2, 1 mM dithiothreitol, 0.1 mM PMSF and cocktail of protease inhibitors) and incubated on ice for 30 min. Cells were then homogenized using a dounce homogenizer with type B pestle and centrifuged twice at 800×g for 10 min at 4° C. The supernatant was centrifuged at 10,000×g for 15 min at 4° C., and the resulting supernatant was then transferred to fresh tube and centrifuged at 100,000×g […] for 1 hr at 4° C. The final supernatant obtained in this centrifugation was designated as cytosolic extract and was stored in −70° C. for further analysis.
Western blotting. Equal amounts of protein were resolved on 10% SDS-polyacrylamide gel electrophoresis, and transferred to nitrocellulose membrane (Hybond-ECL, Amersham Pharmacia Biotech) immunoblotted with anti-p53 or anti-p53 phospho ser-15 (Cell Signaling Technology, Beverly, Mass.) and visualized using Lumiglo system with antirabbit conjugated HRP. […]

Data set [14] has as its target T1, E. coli thioredoxin reductase-thioredoxin system (Escherichia coli, UniProt P0A9P4).
T1 construct: purchased American Diagnostica Inc (thioredoxin reductase); Promega Inc (thioredoxin)
Nature of the data set: Superoxide detection by cytochrome c reduction assay with thioredoxin system. The data set is classed as biochemical. The method, then:
Superoxide detection by cytochrome c reduction assay. Superoxide (O2—) generated in the process of redox-cycling was detected by SOD inhibitable rate of ferricytochrome c reduction (Das et al., 2000). The reaction mixture contained 0.05 M potassium phosphate buffer (pH 7.78), 1 mM EDTA, 10 μM cytochrome c and 200 μM NADPH. […] The rate of […] of cytochrome c was measured at 550 nm for 0-15 minutes using Shimadzu UV-1601PC in kinetic mode. Reaction blank contained potassium phosphate buffer, cytochrome c and NADPH with or without SOD, and controls included 0.35-0.7 μg TR and /or Trx in buffer. All reactions were performed in triplicate.

In data set [15] the test system is A549 cells. Nature of the data set: ROS detection by DCF-DA fluorescence. The note with it: daunomycin only (1 μM). The data set is classed as cell-based, human. As to the method: In situ detection of superoxide by fluorescent probe DiCarboxyFluorescein-DiAcetate (DCF-DA). […] Cells were pre-incubated with 20 μM DCF-DA (Sigma, St. Louis, Mo.) in 20 mM Hepes in Phosphate Buffered Saline (PBS) containing bovine serum albumin (BSA, 5 mg/ml) at 37° C. for 30 min followed by washing with PBS buffer, and the drug was added and observed for 10-15 min in a Nikon laser confocal microscope using laser beam wavelength 488 nm analyzed by Ultraview software (Perkin-Elmer).

For data set [16] the following is noted: cited from earlier work.

T1 sequence (P0A9P4 2-321): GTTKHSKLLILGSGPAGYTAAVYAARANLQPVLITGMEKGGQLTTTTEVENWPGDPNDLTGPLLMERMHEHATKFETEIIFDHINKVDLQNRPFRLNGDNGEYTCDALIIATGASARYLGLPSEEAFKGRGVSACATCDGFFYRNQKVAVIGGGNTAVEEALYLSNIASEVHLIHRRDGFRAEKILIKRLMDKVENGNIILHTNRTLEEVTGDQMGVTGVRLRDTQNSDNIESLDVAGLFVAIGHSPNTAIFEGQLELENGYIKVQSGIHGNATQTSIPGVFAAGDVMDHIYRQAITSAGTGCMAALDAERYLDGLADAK

As for `Nn1nnc2ccccc21` [ABT, 1-Aminobenzotriazole], the “inhibition of SOD-inhibitable rate of O2— generation” value in [1] (Trx9 cells) was 54%.

Turning to `c1ccc2c(c1)[I+]c1ccccc1-2` [DPIC, dipheyleneiodonium], the “effect on generation of O2—” value in data set [1] (Trx9 cells, DPIC 25 or 50 μM pre-incubation, 10 μM doxorubicin) was “inhibited generation of O2—”. Further, the “effect on p53 ser-15 phosphorylation” value in data set [2] is listed as “abolished”. The “effect on p53 DNA binding” value in data set [3] (DPIC 50 μM) is “abolished”.

`O=C(O)c1ccc(/C2=C3\C=CC(=N3)/C(c3ccc(C(=O)O)cc3)=c3/cc/c4[n]3[Mn]([Cl])[n]3c2ccc3/C(c2ccc(C(=O)O)cc2)=C2/C=CC(=N2)\C=4c2ccc(C(=O)O)cc2)cc1` [MnTBAP]: the “effect on p53 ser-15 phosphorylation” value in data set [2] is “no appreciable decrease”. Further, the “reduction in p53 DNA binding activity (densitometric analysis)” value in data set [3] was “about 30%”.

Turning to `Nc1ncnc2c1ncn2[C@@H]1O[C@H](COP(=O)(O)O)[C@@H](O)[C@H]1OP(=O)(O)O` [PAMP, 2′-Phospho-5′-AMP], the “inhibition of SOD-inhibitable rate of O2— generation” value in data set [1] (Trx9 cells) stood at 76%.

With `COc1cccc2c1C(=O)c1c(O)c3c(c(O)c1C2=O)C[C@@](O)(C(C)=O)C[C@@H]3O[C@H]1C[C@H](N)[C@H](O)[C@H](C)O1` [daunomycin, 5,12-Naphthacenedione, (8S-cis)-8-acetyl-10-[(3-amino-2,3,6-trideoxy-a-L-lyxo-hexanopyranosyl)oxy]-7,8,9,10-tetrahydro-6,8,11-trihydroxy-10-methoxy-, hydrochloride], the “percentage of apoptotic cells (sub-G1)” value stood at 23% in [4] and 6% in data set [5]. In addition, the “level of BrdU incorporated” value was 60% in [6] and 76% in [7]. For the same molecule, the results for the “percentage of cell death (XTT)” value in data set [8] and in data set [9] were 48% and 16%, respectively. Moreover, the clonogenic survival entry is recorded as “failed to propagate into colonies” in [10] and “able to propagate into several colonies” in [11]. Moreover, the TUNEL-positive cells result in data set [12] is “higher number of TUNEL positive Trx9 cells”. Besides, the cytochrome c release result in data set [13] is “increased cytochrome c release”. Also, in [1] (Trx9 compared to vector-transfected cells, 10 μM drug), the “O2— production” value is recorded as “significantly higher level of O2—”. In data set [14] (drug 10 μM with thioredoxin reductase alone), the “levels of O2— generated” value is recorded as “significantly higher levels of O2—”. Moreover, in data set [14] (drug alone, 10 μM), the “SOD inhibitable rate of ferricytochrome c reduction” value is recorded as “did not show significant level”. Moreover, the “ROS generation (DCF-DA)” value in data set [15] was “ROS generation was increased”. For the same molecule, in [16] (in vivo), the “secreted into the bile” value was ~40%. Besides, the elimination half-life entry in data set [16] (intravenous) is on record as “about 19 hr”. For the same molecule, the absorption entry in [16] (oral) is listed as “poor”.

`COc1cccc2c1C(=O)c1c(O)c3c(c(O)c1C2=O)C[C@@](O)([C@H](C)O)C[C@@H]3O[C@H]1C[C@H](N)[C@H](O)[C@H](C)O1` [daunorubicinol]: the “half-life of active metabolite” value in data set [16] (metabolite of daunorubicin) is “about 27 hr”.
